Where a SMILES comes first, the peptide text is derived from it. [ ]: non-standard residue; d: D form.
Legend:
[1] = system: C57BL/6 lymphocytes with irradiated DBA/2 cells; assay: Mixed lymphocyte reaction (MLR), 3H thymidine uptake; format: cell-based, mice
Source text: 1. Cytotoxic T Lymphocytes (CTL) Mixed Lymphocyte Reaction (MLR) and Mitogenic Response Assays
The protocols used are described in Hudson L., Haay F., Pratical immunology, 3rd edition, Blackwell, Scientific publications, Oxford 1989, p. 158-162, and p.447.
Lymphocytes were isolated from C57BL/6 mice and DBA/2 mice in accordance to techniques well known in the art. Cell concentration was adjusted to 10×10^6 cell/ml for each assay. The cells isolated from DBA/2 mice were irradiated with 3000 Rads.
In a 6 well plate, each well was set up with:
The cells were incubated for five days at 37° C. in 5% CO2, after which CTL and MLR assays were performed.
b) Mixed Lymphocyte Reaction (MLR)
Mixed lymphocyte reaction is an in vitro counterpart of the allograft rejection. Briefly, lymphocyte activation (mitotic response) is obtained when cells from two inbred strains or from two outbred individuals of any species are mixed in in vitro culture. To have a unidirectional response, the proliferation of either cell type may be blocked with X-ray irradiation or mitomycin C treatment. After 4 days incubation, ^3 H thymidine uptake and cytotoxicity assays (CTL) were performed. The cells were then resuspended and 100 μl of cell suspension was deposited in each well of a 96 well plate. 1 μCi of tritiated thymidine was added for 6 hours. After incubation, the cells were then harvested and counted using a Microbeta counter.

T cells = assay: Activation of T cells by mitogenic proliferation (ConA, PHA); format: cell-based, C57BL/6 mice; settings: concentration not given; 0 not defined
Source text: (§1) c) Activation of T or B cells by Mitogenic Proliferation
(§2) A mitogenic lectin (mitogen) is a glycoprotein which binds and cross-links specific cells surface carbohydrate determinants, and will polyclonally stimulate lymphoid cells. Lymphocyte activation by either antigens or mitogens results in intracellular changes and the subsequent development into a lymphoblast. Mitogenic stimulation of lymphocytes in vitro is believed to mimic the series of events which occur in vivo following their stimulation by specific antigens. PHA and ConA; PWM and LPS mitogens can be used as a measurement of T cell and B cell activity, respectively. Briefly, the spleen mononuclear leukocytes from C57BL/6 mice are incubated in the presence or absence of mitogens with or without candidate drugs. After 72 hours or 5 days, ^3 H-thymidine incorporation is recorded as an indication of cell proliferation.
(§3) Lymphocytes were isolated from mice spleen or human blood in accordance to methods well known in the art. 100 μl of cell suspension of 2×10^6 cells/ml was added per well (2x10^5 cells/well) and incubated in the presence of lectin at the following concentrations:
PHA=0.01% to 0.001% final concentration
(§4) Cells were incubated for 3 days with PHA or ConA, or 5 days with PWM or LPS. 1 μCi of tritiated thymidine was added to each well for the last 6 hours (or 0.5 μCi for 18 hrs). The cells were harvested in a cell Harvester (Tortech®) and counted in a Beta counter.

B cells = assay: Activation of B cells by mitogenic proliferation (LPS, PWM); format: cell-based, C57BL/6 mice
Source text: as §1, §2, §3
PWM=0.2 to 0.02% final concentration
as §4

[2] = Stability in Human Whole Blood at 37° C., HPLC; format: in vitro ADME; design: half-life: dose or concentration left out as unconfirmed; settings: for HPLC AREA: human whole blood 37° C.; for half-life: human, human whole blood, 37° C.
Procedure: The procedures are the same as example 5 with the exceptions that human whole blood was substituted for rat whole blood, and that in Step 2, (blood incubation) aliquotes were taken at the following times: […]

[3] = concentration not given, 0 not defined

Row | HPLC AREA ([2]; 0 min) | HPLC AREA ([2]; 15 min) | HPLC AREA ([2]; 30 min) | HPLC AREA ([2]; 45 min) | half-life [2] [min] | HPLC AREA ([2]; 60 min) | HPLC AREA ([2]; 90 min) | HPLC AREA ([2]; 120 min) | HPLC AREA ([2]; 150 min) | HPLC AREA ([2]; 180 min) | HPLC AREA ([2]; 210 min) | SMILES | MLR [1, 3] | Activation of T Cells, ConA (T cells) | Activation of T Cells, PHA (T cells) | Activation of B Cells, PWM (B cells; 10^-6 - 10^-4 M) | Activation of B Cells, LPS (B cells; 10^-10 - 10^-4 M) | stimulation of B cells in vitro (in words) (B cells; summary of Table 1) | MLR ([1]; 10^-7 M) [×] | Activation of B Cells, LPS (B cells; [3]) | Activation of B Cells, PWM (B cells; [3])
1 | 887657 | 354842 | 127725 | 0 | ~20 | – | – | – | – | – | – | NCCCC[C@H](N)C(=O)N[C@@H](CC(N)=O)C(=O)N1CCC[C@H]1C(=O)N[C@@H](Cc1ccc(O)cc1)C(=O)O [PEPTIDE #1, H-Lys-Asn-Pro-Tyr-OH] (H-KNPY-OH) | 0 | 0 | 0 | 1.7 - 4 × | 1.9 - 3.6 × | stimulates CTL's and B cells | – | – | –
2 | 2857082.5 | 3066465 | 3017509.5 | – | > 210 | 3135696.5 | 3005211 | 3476665.5 | 3063052 | 3108157 | 3181899 | NCCCC[C@@H](N)C(=O)N[C@@H](CC(N)=O)C(=O)N1CCC[C@H]1C(=O)N[C@@H](Cc1ccc(O)cc1)C(=O)O [PEPTIDE #5, H-(D-Lys)-Asn-Pro-Tyr-OH] (H-[dK]NPY-OH) | – | 0 | 0 | – | – | – | 2.1 | 0 | 0

From US5980913A, “Peptides having immunomodulatory activity” (Biochem Pharma, Inc., priority 1994, dated 1999)
